target: Urokinase-type plasminogen activator (Homo sapiens, UniProt P00749); experiment: Inhibition of human uPA using Z-Gly-Gly-Arg-AMC as substrate after 30 mins by fluorescence assay

Structure (SMILES) | Ki [µM]
CC(C)C[C@@H]1NC(=O)[C@H]([C@@H](C)O)NC(=O)[C@H](CCCNC(=N)N)NC(=O)[C@H](C)NC(=O)[C@H]([C@@H](C)O)NC(=O)[C@@H]2CSCc3cc(cc(c3)CSC[C@@H](C(=O)NCC(=O)O)NC1=O)CSC[C@H](NC(=O)[C@H](C)N)C(=O)N[C@@H](CCCCN)C(=O)N[C@@H](CCC(N)=O)C(=O)N[C@@H](CO)C(=O)N[C@@H](C(C)C)C(=O)N2 | 8.67
C[C@H](N)C(=O)N[C@H]1CSCc2cc3cc(c2)CSC[C@@H](C(=O)NCC(=O)O)NC(=O)[C@@H]2CCCN2C(=O)[C@H](Cc2ccccc2)NC(=O)[C@H](CCCNC(=N)N)NC(=O)[C@H](C)NC(=O)[C@H]([C@@H](C)O)NC(=O)[C@H](CSC3)NC(=O)[C@H](CC(=O)O)NC(=O)[C@H](CO)NC(=O)[C@H](Cc2cnc[nH]2)NC(=O)[C@H](CCCCN)NC1=O | 26.8
CSCC[C@@H]1NC(=O)[C@H]([C@@H](C)O)NC(=O)[C@H](Cc2ccccc2)NC(=O)[C@H](CCCCN)NC(=O)[C@@H]2CSCc3cc(cc(c3)CSC[C@@H](C(=O)NCC(=O)O)NC1=O)CSC[C@H](NC(=O)[C@H](C)N)C(=O)N[C@@H](CCCNC(=N)N)C(=O)NCC(=O)NCC(=O)N2 | 23.5
CC(C)C[C@@H]1NC(=O)[C@H](C(C)C)NC(=O)[C@H](CCC(N)=O)NC(=O)[C@H]([C@@H](C)O)NC(=O)[C@H](C)NC(=O)[C@@H]2CCCN2C(=O)[C@@H]2CSCc3cc(cc(c3)CSC[C@@H](C(=O)NCC(=O)O)NC1=O)CSC[C@H](NC(=O)[C@H](C)N)C(=O)N[C@@H]([C@@H](C)O)C(=O)N[C@@H](C)C(=O)N[C@@H](CCCNC(=N)N)C(=O)N[C@@H]([C@@H](C)O)C(=O)N2 | 48.7

Other lines, results leading:

Ki [µM] | Structure (SMILES)
0.9 | CC[C@H](C)[C@@H]1NC(=O)[C@H](CO)NC(=O)[C@H](CO)NC(=O)[C@H](CCCNC(=N)N)NC(=O)CNC(=O)[C@H](CCCNC(=N)N)NC(=O)[C@@H]2CSCc3cc(cc(c3)CSC[C@@H](C(=O)NCC(=O)O)NC1=O)CSC[C@H](NC(=O)[C@H](C)N)C(=O)N[C@@H]([C@@H](C)O)C(=O)N[C@@H](CCC(=O)O)C(=O)N[C@@H](Cc1ccccc1)C(=O)N[C@@H](CCC(N)=O)C(=O)N[C@@H]([C@@H](C)O)C(=O)N[C@@H](CC(=O)O)C(=O)N2
0.71 | C[C@H](N)C(=O)N[C@H]1CSCc2cc3cc(c2)CSC[C@@H](C(=O)NCC(=O)O)NC(=O)[C@@H]2CCCN2C(=O)CNC(=O)CNC(=O)[C@H](CCCNC(=N)N)NC(=O)CNC(=O)[C@H](CCCNC(=N)N)NC(=O)[C@H](CSC3)NC(=O)[C@H](CC(=O)O)NC(=O)[C@H]([C@@H](C)O)NC(=O)[C@H](C)NC(=O)[C@H](C)NC(=O)[C@H](Cc2cnc[nH]2)NC(=O)[C@H](CC(N)=O)NC1=O
4.77 | CC(C)C[C@@H]1NC(=O)[C@@H](NC(=O)[C@H](C)N)CSCc2cc3cc(c2)CSC[C@@H](C(=O)NCC(=O)O)NC(=O)[C@H](CO)NC(=O)[C@@H]2CCCN2C(=O)[C@H](CCCNC(=N)N)NC(=O)[C@H](CCCNC(=N)N)NC(=O)[C@H](CC(N)=O)NC(=O)[C@H](CCC(=O)O)NC(=O)[C@H](CSC3)NC(=O)CNC(=O)[C@H](CCCNC(=N)N)NC(=O)[C@H](CCC(=O)O)NC(=O)CNC(=O)[C@H](CCC(N)=O)NC1=O
1.48 | CC(C)C[C@@H]1NC(=O)[C@H](CO)NC(=O)[C@H](Cc2ccccc2)NC(=O)[C@H](CCCCN)NC(=O)[C@H](Cc2c[nH]c3ccccc23)NC(=O)[C@H](CC(N)=O)NC(=O)[C@@H](NC(=O)[C@H](C)N)CSCc2cc3cc(c2)CSC[C@H](NC1=O)C(=O)N[C@@H](CCC(=O)O)C(=O)N[C@@H]([C@@H](C)O)C(=O)N[C@@H](CCC(N)=O)C(=O)N[C@@H](CCCNC(=N)N)C(=O)N[C@@H](CC(N)=O)C(=O)N[C@@H](CCC(N)=O)C(=O)N[C@H](C(=O)NCC(=O)O)CSC3
14.8 | CSCC[C@@H]1NC(=O)[C@H](CCC(N)=O)NC(=O)[C@H](CO)NC(=O)[C@H](CO)NC(=O)[C@@H]2CCCN2C(=O)[C@H](CO)NC(=O)[C@@H]2CSCc3cc(cc(c3)CSC[C@@H](C(=O)NCC(=O)O)NC1=O)CSC[C@H](NC(=O)[C@H](C)N)C(=O)N[C@@H](CC(N)=O)C(=O)N[C@@H](CO)C(=O)N[C@@H](CCCNC(=N)N)C(=O)N[C@@H](Cc1ccccc1)C(=O)N[C@@H](C)C(=O)N[C@@H](CC(C)C)C(=O)N2

Source: ChEMBL document CHEMBL3132755, “Phage display libraries of differently sized bicyclic peptides” (Medchemcomm, 2013)
